Data from patent US10202339B2, “Therapeutic compounds and compositions” (AGIOS PHARMACEUTICALS, INC., priority 2012, dated 2019).

Each molecule was assayed against IDH2 R140Q (Homo sapiens (Human), UniProt P48735, R140Q) (assay: IDH2 R140Q enzymatic cofactor depletion assay (diaphorase/resazurin)). Details: IDH2 R140Q enzyme, one hour preincubation with compound, one hour reaction; read-out: Enz R140Q.
Format: biochemical
Method: The reaction was terminated by the addition of a second enzyme, diaphorase, and a corresponding substrate, resazurin. Diaphorase reduces resazurin to the highly fluorescent resorufin with the concomitant oxidation of NADPH to NADP, both halting the IDH2 reaction by depleting the available cofactor pool and facilitating quantitation of the amount of cofactor remaining after a specific time period through quantitative production of an easily detected fluorophore.
The compound was then incubated for one hour at room temperature with the enzyme; before starting the IDH2 reaction with the addition of 10 μl of substrate mix containing 50 μM NADPH and 6.3 mM α-KG in the buffer described above. After a further one hour of incubation at room temperature, the reaction was halted and the remaining NADPH measured through conversion of resazurin to resorufin by the addition of 25 μl Stop Mix (36 μg/ml diaphorase enzyme and 60 μM resazurin; in buffer). After one minute of incubation the plate was read on a plate reader at Ex544/Em590.

Chain of IDH2 R140Q (P48735 40-452 R140Q): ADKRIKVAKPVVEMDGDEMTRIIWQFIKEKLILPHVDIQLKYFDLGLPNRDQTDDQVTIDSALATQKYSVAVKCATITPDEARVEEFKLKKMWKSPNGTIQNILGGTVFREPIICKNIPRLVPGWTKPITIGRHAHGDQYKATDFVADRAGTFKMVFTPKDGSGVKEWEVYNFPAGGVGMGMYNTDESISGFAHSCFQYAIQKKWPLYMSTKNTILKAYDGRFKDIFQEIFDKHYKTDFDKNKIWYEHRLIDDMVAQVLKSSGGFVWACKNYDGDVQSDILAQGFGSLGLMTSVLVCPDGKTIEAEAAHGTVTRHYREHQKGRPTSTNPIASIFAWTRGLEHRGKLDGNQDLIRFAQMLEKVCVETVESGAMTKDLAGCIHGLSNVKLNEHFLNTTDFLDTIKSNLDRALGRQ

SMILES | IC50 [nM]
O=C(Nc1nccc(Cl)n1)Nc1cc(S(=O)(=O)NCC(F)(F)F)ccc1-c1ccccc1 [Compound 105, 2-(3-(4-chloropyrimidin-2-yl)ureido)-N-(2,2,2-trifluoroethyl)-[1,1′-biphenyl]-4-sulfonamide] | 100 to 1000
O=C(Nc1ccc(F)cc1F)Nc1cc(S(=O)(=O)NCC(F)(F)F)ccc1OCC1CC1 [Compound 188, 4-(cyclopropylmethoxy)-3-(3-(2,4-difluorophenyl)ureido)-N-(2,2,2-trifluoroethyl)benzenesulfonamide] | 100 to 1000
O=C(Nc1cnccc1Cl)Nc1cc(S(=O)(=O)NCC(F)(F)F)ccc1-c1ccccc1 [Compound 85, 2-(3-(4-chloropyridin-3-yl)ureido)-N-(2,2,2-trifluoroethyl)-[1,1′-biphenyl]-4-sulfonamide] | 100 to 1000
O=C(Nc1ccccc1F)Nc1cc(S(=O)(=O)Nc2ccccc2)ccc1-c1ccsc1 [Compound 9, 3-(3-(2-fluorophenyl)ureido)-N-phenyl-4-(thiophen-3-yl)benzenesulfonamide] | 100 to 1000
O=C(Nc1cc(C(F)(F)F)ccn1)Nc1cc(S(=O)(=O)NCC(F)(F)F)ccc1OCC1CC1 [Compound 189, 4-(cyclopropylmethoxy)-N-(2,2,2-trifluoroethyl)-3-(3-(4-(trifluoromethyl)pyridin-2-yl)ureido)benzene sulfonamide] | 100 to 1000
O=C(Nc1cccc(C(F)(F)F)c1)Nc1cc(S(=O)(=O)NCC(F)(F)F)cnc1NCC1CC1 [Compound 204, 6-((cyclopropylmethyl)amino)-N-(2,2,2-trifluoroethyl)-5-(3-(3-(trifluoromethyl)phenyl)ureido)pyridine-3-sulfonamide] | 1000 to 10000
O=C(Nc1ccccc1OC(F)(F)F)Nc1cc(S(=O)(=O)NCC(F)(F)F)ccc1-c1ccccc1 [Compound 43, N-(2,2,2-trifluoroethyl)-2-(3-(2-(trifluoromethoxy)phenyl)ureido)-[1,1′-biphenyl]-4-sulfonamide] | 100 to 1000
Cc1ccc(NC(=O)Nc2cc(S(=O)(=O)Nc3ccccc3)ccc2-c2ccsc2)cc1C [Compound 17] | 1000 to 10000
O=C(Nc1cccc(C(F)(F)F)c1)Nc1cc(S(=O)(=O)NCC(F)(F)F)cnc1OCC1CCOC1 (stereo not shown) [Compound 201, 6-((tetrahydrofuran-3-yl)methoxy)-N-(2,2,2-trifluoroethyl)-5-(3-(3-(trifluoromethyl)phenyl)ureido)pyridine-3-sulfonamide] | 100 to 1000
CCOc1ccc(S(=O)(=O)NCC(F)(F)F)cc1NC(=O)Nc1ncc(Cl)s1 [Compound 191, 3-(3-(5-chlorothiazol-2-yl)ureido)-4-ethoxy-N-(2,2,2-trifluoroethyl)benzenesulfonamide] | 100 to 1000
O=C(Nc1cc(S(=O)(=O)NCC(F)(F)F)ccc1-c1ccccc1)Nc1ccc(F)cc1C(F)(F)F [Compound 76, 2-(3-(4-fluoro-2-(trifluoromethyl)phenyl)ureido)-N-(2,2,2-trifluoroethyl)-[1,1′-biphenyl]-4-sulfonamide] | 100 to 1000
O=C(Nc1cccc(S(=O)(=O)NCC(F)(F)F)c1)Nc1cc(C(F)(F)F)ccn1 [Compound 337, N-(2,2,2-trifluoroethyl)-3-(3-(4-(trifluoromethyl)pyridin-2-yl)ureido)benzenesulfonamide] | 100 to 1000
O=C(Nc1ccc(F)c(C(F)(F)F)c1)Nc1cc(S(=O)(=O)NCC(F)(F)F)ccc1C1CCCCO1 (stereo not shown) [Compound 167, 3-(3-(4-fluoro-3-(trifluoromethyl)phenyl)ureido)-4-(tetrahydro-2H-pyran-2-yl)-N-(2,2,2-trifluoroethyl)benzenesulfonamide] | 100 to 1000
CC[S+]([O-])c1ccc(S(=O)(=O)NCC(F)(F)F)cc1NC(=O)Nc1cccc(C(F)(F)F)c1 (stereo not shown) [Compound 195, 4-(ethylsulfinyl)-N-(2,2,2-trifluoroethyl)-3-(3-(3-(trifluoromethyl)phenyl)ureido)benzenesulfonamide] | 100 to 1000
O=C(Nc1cc(S(=O)(=O)NCC(F)(F)F)ccc1-c1ccccc1)NC1CCCC(C(F)(F)F)C1 (stereo not shown) [Compound 72, N-(2,2,2-trifluoroethyl)-2-(3-(3-(trifluoromethyl)cyclohexyl)ureido)-[1,1′-biphenyl]-4-sulfonamide] | 100 to 1000
CC1(C)CCCC(NC(=O)Nc2cc(S(=O)(=O)NCC(F)(F)F)ccc2-c2ccccc2)C1 (stereo not shown) [Compound 73] | 1000 to 10000

Second part, the molecule after the results:

IC50 [nM] | SMILES
1000 to 10000 | O=C(Nc1cccc(C(F)(F)F)c1)Nc1cc(S(=O)(=O)N2CCC2)ccc1-c1ccsc1 [Compound 140]
1000 to 10000 | O=C(Nc1cc(Cl)cc(Cl)c1)Nc1cc(S(=O)(=O)NC2CC2)ccc1-c1ccsc1 [Compound 26]
100 to 1000 | N#CC1(NS(=O)(=O)c2ccc(-c3ccccc3)c(NC(=O)Nc3cccc(C(F)(F)F)c3)c2)CC1 [Compound 46, N-(1-cyanocyclopropyl)-2-(3-(3-(trifluoromethyl)phenyl)ureido)-[1,1′-biphenyl]-4-sulfonamide]
> 10000 | O=C(Nc1cccc(C(F)(F)F)c1)Nc1cc(S(=O)(=O)Nc2ccccc2O)ccc1-c1ccsc1 [Compound 142]
100 to 1000 | CC(C)NS(=O)(=O)c1ccc(-c2ccsc2)c(NC(=O)Nc2cccc(C(F)(F)F)c2)c1 [Compound 115, N-isopropyl-4-(thiophen-3-yl)-3-(3-(3-(trifluoromethyl)phenyl)ureido)benzenesulfonamide]
100 to 1000 | O=C(Nc1cccc(C(F)(F)F)c1)Nc1cc(S(=O)(=O)NCC2CCC2)ccc1-c1ccsc1 [Compound 128, N-(cyclobutylmethyl)-4-(thiophen-3-yl)-3-(3-(3-(trifluoromethyl)phenyl)ureido)benzenesulfonamide]
100 to 1000 | Cc1cccc(NC(=O)Nc2cc(S(=O)(=O)Nc3ccccc3)ccc2-c2ccsc2)c1 [Compound 3, N-phenyl-4-(thiophen-3-yl)-3-(3-(m-tolyl)ureido)benzenesulfonamide]
100 to 1000 | O=C(Nc1cccc(C(F)(F)F)c1)Nc1cc(S(=O)(=O)NC2CCCC2)ccc1-c1ccsc1 [Compound 126, N-cyclopentyl-4-(thiophen-3-yl)-3-(3-(3-(trifluoromethyl)phenyl)ureido)benzenesulfonamide]
1000 to 10000 | O=C(Nc1cccc(C(F)(F)F)c1)Nc1cc(S(=O)(=O)NC2CC2)cnc1N1CCOCC1 [Compound 357]
< 100 | N#CC1(NS(=O)(=O)c2ccc(-c3ccsc3)c(NC(=O)Nc3cccc(C(F)(F)F)c3)c2)CC1 [Compound 31, N-(1-cyanocyclopropyl)-4-(thiophen-3-yl)-3-(3-(3-(trifluoromethyl)phenyl)ureido)benzenesulfonamide]
1000 to 10000 | COc1ccc(-c2ccc(S(=O)(=O)Nc3ccccc3)cc2NC(=O)Nc2cccc(C(F)(F)F)c2)cc1 [Compound 59]
100 to 1000 | O=C(Nc1cccc(C(F)(F)F)c1)Nc1cc(S(=O)(=O)NC2CCC2)ccc1-c1ccsc1 [Compound 125, N-cyclobutyl-4-(thiophen-3-yl)-3-(3-(3-(trifluoromethyl)phenyl)ureido)benzenesulfonamide]
1000 to 10000 | Cc1cncc(NC(=O)Nc2cc(S(=O)(=O)NC3CC3)ccc2-c2ccsc2)c1 [Compound 29, N-cyclopropyl-3-(3-(5-methylpyridin-3-yl)ureido)-4-(thiophen-3-yl)benzenesulfonamide]
1000 to 10000 | O=C(Nc1cccc(C(F)(F)F)c1)Nc1cc(S(=O)(=O)Nc2ccccc2)ccc1-n1cccn1 [Compound 344]
100 to 1000 | O=C(Nc1cccc(C(F)(F)F)c1)Nc1cc(S(=O)(=O)NCC(F)(F)F)ccc1C1CCCCO1 (stereo not shown) [Compound 165, 4-(tetrahydro-2H-pyran-2-yl)-N-(2,2,2-trifluoroethyl)-3-(3-(3-(trifluoromethyl)phenyl)ureido)benzene sulfonamide]
100 to 1000 | O=C(Nc1ccccc1F)Nc1cc(S(=O)(=O)NC2CC2)ccc1-c1ccccc1 [Compound 35, N-cyclopropyl-2-(3-(2-fluorophenyl)ureido)-[1,1′-biphenyl]-4-sulfonamide]
100 to 1000 | O=C(Nc1cc(S(=O)(=O)NCC(F)(F)F)ccc1-c1ccccc1)Nc1c(F)cccc1F [Compound 41, 2-(3-(2,6-difluorophenyl)ureido)-N-(2,2,2-trifluoroethyl)-[1,1′-biphenyl]-4-sulfonamide]
1000 to 10000 | O=C(Nc1ccc(F)cc1)Nc1cc(S(=O)(=O)NC2CC2)ccc1-c1ccccc1 [Compound 53]
1000 to 10000 | O=C(Nc1ccc(F)c(C(F)(F)F)c1)Nc1cc(S(=O)(=O)Nc2ccccc2)ccc1-c1ccsc1 [Compound 21]
1000 to 10000 | Cc1cccc(-c2ccc(S(=O)(=O)NC3CC3)cc2NC(=O)Nc2cccc(C(F)(F)F)c2)c1 [Compound 48, N-cyclopropyl-3′-methyl-2-(3-(3-(trifluoromethyl)phenyl)ureido)-[1,1′-biphenyl]-4-sulfonamide]
100 to 1000 | O=C(Nc1cccc(C(F)(F)F)c1)Nc1cc(S(=O)(=O)NC2CC2)cnc1N1CCCOCC1 [Compound 358]
100 to 1000 | O=C(Nc1cccc(C(F)(F)F)c1)Nc1cc(S(=O)(=O)NC2CC2)ccc1N1CCCOCC1 [Compound 349, N-cyclopropyl-4-(1,4-oxazepan-4-yl)-3-(3-(3-(trifluoromethyl)phenyl)ureido)benzenesulfonamide]
1000 to 10000 | O=C(Nc1cccc(C(F)(F)F)c1)Nc1cc(S(=O)(=O)Nc2ccc(O)cc2)ccc1-c1ccsc1 [Compound 146, N-(4-hydroxyphenyl)-4-(thiophen-3-yl)-3-(3-(3-(trifluoromethyl)phenyl)ureido)benzenesulfonamide]
1000 to 10000 | O=C(Nc1cccc(C(F)(F)F)c1)Nc1cc(S(=O)(=O)Nc2ccccc2)ccc1-c1cccc(F)c1 [Compound 64]
